# Results: patent US7928140B2, “Benzothiazole PI3 kinase modulators for cancer treatment” (Amgen Inc., priority 2007, dated 2011)
# Legend:
# [1] = test system: phosphorylation of Serine 473 in Akt, HCT 116 human colon carcinoma cells; assay: Cell-based phospho-AKT Ser473 assay (MSD sandwich immunoassay, IGF-1 stimulated); conditions: Homo sapiens, HCT-116, HCT 116 cells; read-out: HCT 116 pAKT IC50
# Description: This assay determines the ability of test compounds to inhibit the phosphorylation of […] in Akt using a MSD based sandwich immunoassay (Meso Scale Detection, catalogue # N411CAB-1). […] Prior to the assay cells were detached from the culture flask with trypsin, and re-suspended in complete media to give a final concentration of 1.6×10^5 cells per ml. Aliquots (100 μl) of the HCT116 cell suspension were seeded into each well of a 96 well tissue culture plate (Corning Incorporated COSTAR, catalogue#3595) to give a final density of 16,000 cells per well. Cells were then incubated overnight at 37° C. The following day the cells were treated with serially diluted test compounds and incubated for 2 hours at 37° C. […] As a maximum response control, wells contained 0.5% DMSO in place of test compound. The plates were mixed at 700 rpm for 2 min to ensure even distribution of the test compound and incubated for 2 hours at 37° C. Cells were then stimulated with insulin-like growth factor 1 (Sigma, product #13769) at final concentration of 100 ng/ml for 15 minutes at 37° C. The media was then removed and the cells treated with 80 μl cell-lysis buffer (MSD) containing a cocktail of protease and phosphatase inhibitors for one hour at 4° C. […] The detection antibody was removed and plates were then washed four times with 200 μl per well of Tris wash buffer. An aliquot of 150 μl of diluted MSD read buffer was then applied to each well, and the electrochemiluminescent signal was measured using a MSD SECTORTM plate reader. This instrument measures the intensity of emitted light to determine a quantitative measure of phosphorylated Akt in each well. The dose-response data obtained with each compound were analyzed and the IC50 inhibition of Akt phosphorylation at Ser473 calculated.
# PI3K β = target: T1, PI3K β (Homo sapiens, UniProt P42338); assay: In vitro PI3 kinase enzyme assay (beta), ATP loss, bioluminescence; assay type: biochemical; conditions: read-out: PI3Kβ ATP loss IC50;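 note: purified p110β/p85 heterodimer with PtdIns(4,5)P2 as acceptor, incubated at room temperature, leftover ATP read by luminescence, inhibition scaled to compound-free wells with and without enzyme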
# T1 construct: Full length p110 subunits of PI3K α, β and δ, N-terminally labeled with polyHis tag; polyHis (N); made in house; host or cells: Sf9 insect cells (baculovirus)
# T1 sequence (P42338 whole entry): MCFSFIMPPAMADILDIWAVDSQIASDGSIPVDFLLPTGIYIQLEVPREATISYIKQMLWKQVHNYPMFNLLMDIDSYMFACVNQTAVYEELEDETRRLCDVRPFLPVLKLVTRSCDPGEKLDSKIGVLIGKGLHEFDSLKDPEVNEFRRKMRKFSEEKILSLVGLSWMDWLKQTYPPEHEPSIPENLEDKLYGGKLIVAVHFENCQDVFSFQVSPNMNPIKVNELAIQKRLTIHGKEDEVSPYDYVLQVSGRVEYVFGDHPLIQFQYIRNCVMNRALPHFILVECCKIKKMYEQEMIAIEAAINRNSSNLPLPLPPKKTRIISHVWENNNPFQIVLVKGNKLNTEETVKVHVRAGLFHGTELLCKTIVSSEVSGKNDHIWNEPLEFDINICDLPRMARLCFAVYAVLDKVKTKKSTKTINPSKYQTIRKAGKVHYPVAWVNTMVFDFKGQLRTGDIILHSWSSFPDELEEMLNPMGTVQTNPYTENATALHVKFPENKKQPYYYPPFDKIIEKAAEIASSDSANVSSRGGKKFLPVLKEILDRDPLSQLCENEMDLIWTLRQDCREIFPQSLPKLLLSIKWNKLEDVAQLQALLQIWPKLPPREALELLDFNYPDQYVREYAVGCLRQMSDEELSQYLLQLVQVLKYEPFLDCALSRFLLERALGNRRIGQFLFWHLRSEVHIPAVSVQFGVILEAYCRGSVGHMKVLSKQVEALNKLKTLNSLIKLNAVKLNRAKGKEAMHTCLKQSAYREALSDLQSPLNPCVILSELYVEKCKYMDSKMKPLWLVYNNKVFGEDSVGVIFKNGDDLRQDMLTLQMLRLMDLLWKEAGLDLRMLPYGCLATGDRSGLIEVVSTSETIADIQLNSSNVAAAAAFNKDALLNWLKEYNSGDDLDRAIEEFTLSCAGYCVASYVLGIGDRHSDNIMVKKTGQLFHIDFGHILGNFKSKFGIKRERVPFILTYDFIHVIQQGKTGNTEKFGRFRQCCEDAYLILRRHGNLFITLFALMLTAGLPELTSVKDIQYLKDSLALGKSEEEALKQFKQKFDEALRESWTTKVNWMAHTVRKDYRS
# T1 sequence (P27986 whole entry partner): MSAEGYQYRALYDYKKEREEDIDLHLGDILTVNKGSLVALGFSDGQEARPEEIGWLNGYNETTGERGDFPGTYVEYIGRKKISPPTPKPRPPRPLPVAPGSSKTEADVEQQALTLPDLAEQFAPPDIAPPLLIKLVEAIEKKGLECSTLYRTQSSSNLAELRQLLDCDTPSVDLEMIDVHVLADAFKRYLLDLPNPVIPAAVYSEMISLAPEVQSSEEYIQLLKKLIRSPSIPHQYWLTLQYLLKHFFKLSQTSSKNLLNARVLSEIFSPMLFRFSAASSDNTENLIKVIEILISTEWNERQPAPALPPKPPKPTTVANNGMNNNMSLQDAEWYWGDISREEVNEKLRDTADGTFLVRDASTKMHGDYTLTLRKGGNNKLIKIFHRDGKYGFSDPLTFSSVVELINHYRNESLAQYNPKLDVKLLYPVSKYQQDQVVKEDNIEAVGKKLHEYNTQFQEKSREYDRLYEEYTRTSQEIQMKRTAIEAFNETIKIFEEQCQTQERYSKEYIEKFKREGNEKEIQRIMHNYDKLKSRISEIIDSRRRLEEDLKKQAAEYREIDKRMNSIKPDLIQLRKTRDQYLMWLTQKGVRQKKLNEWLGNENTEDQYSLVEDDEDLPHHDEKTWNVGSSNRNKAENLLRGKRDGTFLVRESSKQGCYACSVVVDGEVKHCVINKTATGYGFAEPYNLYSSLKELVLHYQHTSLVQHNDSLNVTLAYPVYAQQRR
# PI3K α = target: T2, PI3K α (Homo sapiens, UniProt P42336); assay: In vitro PI3 kinase enzyme assay (alpha), ATP loss, bioluminescence; assay type: biochemical; conditions: read-out: PI3Kα ATP loss IC50;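 note: purified p110α/p85 heterodimer acting on PtdIns(4,5)P2 at room temperature, remaining ATP read by luminescence, inhibition scaled between compound-free wells with and without enzyme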
# T2 construct: Full length p110 subunits of PI3K α, β and δ, N-terminally labeled with polyHis tag; polyHis (N); made in house; host or cells: Sf9 insect cells (baculovirus)
# T2 sequence (P42336 whole entry, species assumed): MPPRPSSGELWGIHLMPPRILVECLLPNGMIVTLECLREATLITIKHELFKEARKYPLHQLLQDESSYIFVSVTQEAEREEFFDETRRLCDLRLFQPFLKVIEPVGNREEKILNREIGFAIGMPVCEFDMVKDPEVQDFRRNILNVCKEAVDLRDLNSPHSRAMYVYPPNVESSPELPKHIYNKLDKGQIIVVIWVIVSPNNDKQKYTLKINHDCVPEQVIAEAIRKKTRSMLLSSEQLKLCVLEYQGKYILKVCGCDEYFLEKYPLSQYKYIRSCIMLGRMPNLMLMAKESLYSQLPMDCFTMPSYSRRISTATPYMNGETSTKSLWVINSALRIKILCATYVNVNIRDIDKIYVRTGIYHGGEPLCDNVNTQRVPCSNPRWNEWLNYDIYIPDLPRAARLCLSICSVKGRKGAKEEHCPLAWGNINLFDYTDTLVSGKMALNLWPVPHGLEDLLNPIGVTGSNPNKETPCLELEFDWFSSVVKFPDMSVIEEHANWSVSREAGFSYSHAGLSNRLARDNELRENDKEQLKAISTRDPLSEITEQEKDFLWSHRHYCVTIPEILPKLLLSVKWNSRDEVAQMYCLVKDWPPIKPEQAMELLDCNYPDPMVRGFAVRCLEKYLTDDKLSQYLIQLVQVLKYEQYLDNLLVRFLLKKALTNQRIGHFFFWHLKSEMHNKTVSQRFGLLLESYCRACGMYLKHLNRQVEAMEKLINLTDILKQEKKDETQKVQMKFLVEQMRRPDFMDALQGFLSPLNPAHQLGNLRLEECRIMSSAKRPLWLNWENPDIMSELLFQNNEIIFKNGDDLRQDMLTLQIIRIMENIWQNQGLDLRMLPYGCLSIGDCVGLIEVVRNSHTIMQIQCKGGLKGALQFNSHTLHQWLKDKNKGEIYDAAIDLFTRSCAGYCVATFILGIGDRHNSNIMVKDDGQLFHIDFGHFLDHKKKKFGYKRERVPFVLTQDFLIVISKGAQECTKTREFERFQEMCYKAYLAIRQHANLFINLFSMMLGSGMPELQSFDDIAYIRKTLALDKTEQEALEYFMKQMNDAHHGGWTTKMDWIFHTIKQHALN
# T2 sequence (P27986 whole entry partner, species assumed): as the sequence (P27986 whole entry partner) above
Structure (SMILES),IC50 [1],IC50 (PI3K β),IC50 (PI3K α)
"CC(=O)Nc1nc2ccc(-c3ccnc(OCCCc4cccnc4)n3)cc2s1 [Example 1, N-(6-(2-(3-(pyridin-3-yl)propoxy)pyrimidin-4-yl)benzo[d]thiazol-2-yl)acetamide]",1350 nM,3610 nM,–
"CC(=O)Nc1nc2ccc(-c3ccnc(OCc4cccc(F)c4)n3)cc2s1 [Example 12, N-(6-(2-((3-fluorobenzyl)oxy)-4-pyrimidinyl)-1,3-benzothiazol-2-yl)acetamide]",3930 nM,3960 nM,–
"CSc1nccc(-c2ccc3nc(NC(C)=O)sc3c2)n1 [Example 50, N-(6-(2-(methylsulfanyl)-4-pyrimidinyl)-1,3-benzothiazol-2-yl)acetamide]",1050 nM,1180 nM,–
"CC(=O)Nc1nc2ccc(-c3cccc(N(C)S(=O)(=O)c4ccc(C)cc4)n3)cc2s1 [Example 74, N-(6-(6-(N,4-Dimethylphenylsulfonamido)pyridin-2-yl)benzo[d]thiazol-2-yl)acetamide]",85.9 nM,202 nM,–
"COc1ccc(S(=O)(=O)Nc2nccc(-c3ccc4nc(NC(C)=O)sc4c3)n2)cc1 [Example 78, N-(6-(2-(((4-methoxyphenyl)sulfonyl)amino)-4-pyrimidinyl)-1,3-benzothiazol-2-yl)acetamide]",428 nM,67.2 nM,–
"CC(=O)Nc1nc2ccc(-c3ccnc(NS(=O)(=O)c4ccc(F)cc4)n3)cc2s1 [Example 80, N-(6-(2-(((4-fluorophenyl)sulfonyl)amino)-4-pyrimidinyl)-1,3-benzothiazol-2-yl)acetamide]",3220 nM,405 nM,–
"CCN(c1nccc(-c2ccc3nc(NC(C)=O)sc3c2)n1)S(=O)(=O)c1ccc(OC)cc1 [Example 89, N-(6-(2-(N-Ethyl-4-methoxyphenylsulfonamido)pyrimidin-4-yl)benzo[d]thiazol-2-yl)acetamide]",692 nM,442 nM,–
"CC(=O)Nc1nc2ccc(-c3ccnc(N(C)S(=O)(=O)c4ccc(C)cc4)n3)cc2s1 [Example 90, N-(6-(2-(N,4-Dimethylphenylsulfonamido)pyrimidin-4-yl)benzo[d]thiazol-2-yl)acetamide]",51.6 nM,48.8 nM,–
CC(=O)Nc1nc2ccc(-c3ccnc(NC(C)(C)c4ccccc4)n3)cc2s1 [Example 100],698 nM,595 nM,–
"CC(=O)Nc1nc2ccc(-c3ccnc(Sc4cccc(F)c4)n3)cc2s1 [Example 109, N-(6-(2-((3-fluorophenyl)sulfanyl)-4-pyrimidinyl)-1,3-benzothiazol-2-yl)acetamide]",1840 nM,120 nM,–
"COc1ccc(S(=O)(=O)Nc2cncc(-c3ccc4nc(NC(C)=O)sc4c3)n2)cc1 [Example 118, N-(6-(6-(((4-methoxyphenyl)sulfonyl)amino)-2-pyrazinyl)-1,3-benzothiazol-2-yl)acetamide]",147 nM,17.9 nM,–
"CC(=O)Nc1nc2ccc(-c3cnc(Cl)c(NS(=O)(=O)c4ccc(F)cc4)c3)cc2s1 [Example 162, N-(6-(6-Chloro-5-(4-fluorophenylsulfonamido)pyridin-3-yl)benzo[d]thiazol-2-yl)acetamide]",10.4 nM,–,–
"CC(=O)Nc1nc2ccc(-c3cnc(Cl)c(NS(=O)(=O)c4cccc(C(F)(F)F)c4)c3)cc2s1 [Example 172, N-(6-(6-chloro-5-(3-(trifluoromethyl)phenylsulfonamido)pyridin-3-yl)benzo[d]thiazol-2-yl)acetamide]",7 nM,6.9 nM,–
"CC(=O)Nc1nc2ccc(-c3cnc(Cl)c(NS(=O)(=O)c4ccc(Cl)cc4)c3)cc2s1 [Example 180, N-(6-(6-chloro-5-(4-chlorophenylsulfonamido)pyridin-3-yl)benzo[d]thiazol-2-yl)acetamide]",12.6 nM,8.7 nM,–
"CC(=O)Nc1nc2ccc(-c3cncc(N4CC5CCC(CC5)C4)n3)cc2s1 [Example 300, N-(6-(6-(3-aza-bicyclo[3.2.2]nonan-3-yl)pyrazin-2-yl)benzo[d]thiazol-2-yl)acetamide]",8940 nM,–,–
"COc1ccc(S(=O)(=O)Nc2cc(-c3ccc4nc(SC)sc4c3)cnc2Cl)cc1 [Example 327, N-(2-chloro-5-(2-(methylsulfanyl)-1,3-benzothiazol-6-yl)-3-pyridinyl)-4-methoxybenzenesulfonamide]",–,384 nM,222 nM
"Oc1cc(-c2ccc3ncsc3c2)cnc1Cl [Example 334, 5-(1,3-benzothiazol-6-yl)-2-chloro-3-pyridinol]",–,1350 nM,116 nM
"Cc1nc2ccc(-c3cc(O)c(C(F)(F)F)nc3F)cc2s1 [Example 341, 6-fluoro-5-(2-methyl-1,3-benzothiazol-6-yl)-2-(trifluoromethyl)-3-pyridinol]",–,> 40000 nM,21800 nM

# Now from value to compound:
IC50 [1],IC50 (PI3K β),IC50 (PI3K α),Structure (SMILES)
670 nM,184 nM,–,"CC(=O)Nc1nc2ccc(-c3ccnc(SCc4ccccc4)n3)cc2s1 [Example 19, N-(6-(2-(benzylsulfanyl)-4-pyrimidinyl)-1,3-benzothiazol-2-yl)acetamide]"
2160 nM,1090 nM,–,"CC(=O)Nc1nc2ccc(-c3ccnc(Sc4ccccc4C)n3)cc2s1 [Example 34, N-(6-(2-((2-methylphenyl)sulfanyl)-4-pyrimidinyl)-1,3-benzothiazol-2-yl)acetamide]"
> 40000 nM,7910 nM,–,"CC(=O)Nc1nc2ccc(-c3ccnc(OCc4ccc(F)cc4)n3)cc2s1 [Example 39, N-(6-(2-((4-fluorobenzyl)oxy)-4-pyrimidinyl)-1,3-benzothiazol-2-yl)acetamide]"
4950 nM,103 nM,–,"CC(=O)Nc1nc2ccc(-c3ccnc(NS(=O)(=O)c4ccccc4F)n3)cc2s1 [Example 81, N-(6-(2-(((2-fluorophenyl)sulfonyl)amino)-4-pyrimidinyl)-1,3-benzothiazol-2-yl)acetamide]"
3900 nM,304 nM,–,"CC(=O)Nc1nc2ccc(-c3ccnc(NS(=O)(=O)c4cccc(F)c4)n3)cc2s1 [Example 82, N-(6-(2-(((3-fluorophenyl)sulfonyl)amino)-4-pyrimidinyl)-1,3-benzothiazol-2-yl)acetamide]"
888 nM,310 nM,–,"CC(=O)Nc1nc2ccc(-c3ccnc(N(C)S(=O)(=O)c4ccccc4F)n3)cc2s1 [Example 92, N-(6-(2-(2-Fluoro-N-methylphenylsulfonamido)pyrimidin-4-yl)benzo[d]thiazol-2-yl)acetamide]"
9.3 nM,12 nM,–,"COc1ccc(S(=O)(=O)Nc2cc(-c3ccc4nc(NC(C)=O)sc4c3)cnc2C)cc1 [Example 116, N-(6-(5-(((4-methoxyphenyl)sulfonyl)amino)-6-methyl-3-pyridinyl)-1,3-benzothiazol-2-yl)acetamide]"
5.1 nM,6.9 nM,–,"CC(=O)Nc1nc2ccc(-c3cnc(Cl)c(NS(=O)(=O)c4cccc(C(C)(C)C)c4)c3)cc2s1 [Example 173, N-(6-(5-(3-tert-butylphenylsulfonamido)-6-chloropyridin-3-yl)benzo[d]thiazol-2-yl)acetamide]"
10.4 nM,14.5 nM,–,"CC(=O)Nc1nc2ccc(-c3cnc(Cl)c(NS(=O)(=O)c4ccccc4)c3)cc2s1 [Example 181, N-(6-(6-chloro-5-(phenylsulfonamido)pyridin-3-yl)benzo[d]thiazol-2-yl)acetamide]"
362 nM,–,–,"CC(=O)Nc1nc2ccc(-c3cncc(NC(C)(C)C)n3)cc2s1 [Example 227, N-(6-(6-(tert-butylamino)pyrazin-2-yl)benzo[d]thiazol-2-yl)acetamide]"
> 5000 nM,–,–,"CC(=O)Nc1nc2ccc(-c3cncc(OC[C@H]4CCC(=O)N4)c3)cc2s1 [Example 294, N-(6-(5-(((R)-5-oxopyrrolidin-2-yl)methoxy)pyridin-3-yl)benzo[d]thiazol-2-yl)acetamide]"
418 nM,–,–,"CC(=O)Nc1nc2ccc(-c3cncc(O)c3)cc2s1 [Example 296, N-(6-(5-hydroxypyridin-3-yl)benzo[d]thiazol-2-yl)acetamide]"
1190 nM,–,–,"CC(=O)Nc1nc2ccc(-c3ccc(Cl)nc3)cc2s1 [Example 297, N-(6-(6-chloropyridin-3-yl)benzo[d]thiazol-2-yl)acetamide]"
1830 nM,–,–,"COCC(=O)NCCOc1cncc(-c2ccc3nc(NC(C)=O)sc3c2)c1 [Example 298, N-(2-(5-(2-(N-actyl)aminobenzo[d]thiazol-6-yl)pyridin-3-yloxy)ethyl)-2-methoxyacetamide]"
–,13300 nM,2550 nM,"CC(=O)c1cncc(-c2ccc3ncsc3c2)c1 [Example 336, 1-(5-(1,3-benzothiazol-6-yl)-3-pyridinyl)ethanone]"
